Data: ChEMBL document CHEMBL1156737, “Terpenoids. III: Synthesis and biological evaluation of 23-hydroxybetulinic acid derivatives as novel inhibitors of glycogen phosphorylase” (Bioorg Med Chem Lett, 2009)
pIC50: −log10 of the molar value.

molecular target: T1, Glycogen phosphorylase, muscle form (Oryctolagus cuniculus, UniProt P00489); assay: Inhibition of rabbit muscle glycogen phosphorylase A assessed as release of phosphate from glucose-1-phosphate after 25 mins; conditions: not given
T1 sequence (P00489 whole entry): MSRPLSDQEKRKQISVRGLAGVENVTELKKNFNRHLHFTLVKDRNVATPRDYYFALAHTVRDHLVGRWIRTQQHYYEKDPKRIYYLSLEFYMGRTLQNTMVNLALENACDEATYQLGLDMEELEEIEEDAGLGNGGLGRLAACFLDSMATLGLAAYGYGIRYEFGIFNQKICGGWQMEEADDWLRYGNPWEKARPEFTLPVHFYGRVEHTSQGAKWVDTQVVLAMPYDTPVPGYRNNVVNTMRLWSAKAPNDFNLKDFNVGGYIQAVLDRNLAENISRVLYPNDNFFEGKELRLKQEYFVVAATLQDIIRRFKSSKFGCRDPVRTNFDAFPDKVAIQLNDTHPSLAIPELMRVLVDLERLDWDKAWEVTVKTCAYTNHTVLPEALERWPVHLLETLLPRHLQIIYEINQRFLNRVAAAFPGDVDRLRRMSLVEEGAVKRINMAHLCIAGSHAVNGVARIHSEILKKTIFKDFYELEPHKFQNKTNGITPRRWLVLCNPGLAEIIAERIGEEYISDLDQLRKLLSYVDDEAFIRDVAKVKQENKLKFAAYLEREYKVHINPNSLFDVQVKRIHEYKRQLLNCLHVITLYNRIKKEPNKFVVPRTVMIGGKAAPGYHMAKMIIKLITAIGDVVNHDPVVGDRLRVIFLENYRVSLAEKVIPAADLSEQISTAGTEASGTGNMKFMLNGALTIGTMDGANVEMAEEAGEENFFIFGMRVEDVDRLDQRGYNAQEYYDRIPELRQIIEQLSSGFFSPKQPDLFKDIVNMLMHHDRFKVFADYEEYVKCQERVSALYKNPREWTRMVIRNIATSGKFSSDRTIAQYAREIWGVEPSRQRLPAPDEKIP

For `C=C(C)[C@@H]1CC[C@]2(C(=O)NCCCC)CC[C@]3(C)[C@H](CC[C@@H]4[C@@]5(C)CC[C@H](OC(=O)C(=O)NCCCC)[C@@](C)(COC(=O)C(=O)NCCCC)[C@@H]5CC[C@]43C)[C@@H]12`, the IC50 was “Not Active”.

same assay, conditions: read-out: IC50

In order of rising pIC50:
1. C=C(C)[C@@H]1CC[C@]2(C(=O)OCCBr)CC[C@]3(C)[C@H](CC[C@@H]4[C@@]5(C)CC[C@H](O)[C@@](C)(CO)[C@@H]5CC[C@]43C)[C@@H]12  3.54
2. C=C(C)[C@@H]1CC[C@]2(C(=O)NCCCCCCNC(=O)CCC(=O)O)CC[C@]3(C)[C@H](CC[C@@H]4[C@@]5(C)CC[C@H](OC(C)=O)[C@@](C)(COC(C)=O)[C@@H]5CC[C@]43C)[C@@H]12  3.71
3. C=C(C)[C@@H]1CC[C@]2(C(=O)OCC#CCO)CC[C@]3(C)[C@H](CC[C@@H]4[C@@]5(C)CC[C@H](O)[C@@](C)(CO)[C@@H]5CC[C@]43C)[C@@H]12  3.71
4. C=C(C)[C@@H]1CC[C@]2(COC(C)=O)CC[C@]3(C)[C@H](CC[C@@H]4[C@@]5(C)CC[C@H](OC(C)=O)[C@@](C)(COC(C)=O)[C@@H]5CC[C@]43C)[C@@H]12  3.84
5. C=C(C)[C@@H]1CC[C@]2(C(=O)NCC(=O)N[C@@H](Cc3ccccc3)C(=O)O)CC[C@]3(C)[C@H](CC[C@@H]4[C@@]5(C)CC[C@H](O)[C@@](C)(CO)[C@@H]5CC[C@]43C)[C@@H]12  3.89
6. C=C(C)[C@@H]1CC[C@]2(C(=O)O)CC[C@]3(C)[C@H](CC[C@@H]4[C@@]5(C)CC[C@H](O)[C@@](C)(CO)[C@@H]5CC[C@]43C)[C@@H]12  3.99
7. C=C(C)[C@@H]1CC[C@]2(C(=O)NCC(=O)OC)CC[C@]3(C)[C@H](CC[C@@H]4[C@@]5(C)CC[C@H](OC(C)=O)[C@@](C)(COC(C)=O)[C@@H]5CC[C@]43C)[C@@H]12  3.99
8. C=C(C)[C@@H]1CC[C@]2(COC(=O)CCC(=O)O)CC[C@]3(C)[C@H](CC[C@@H]4[C@@]5(C)CC[C@H](OC(=O)CCC(=O)O)[C@@](C)(COC(=O)CCC(=O)O)[C@@H]5CC[C@]43C)[C@@H]12  4.01
9. C=C(C)[C@@H]1CC[C@]2(C(=O)OCC#CCOC(=O)CCC(=O)O)CC[C@]3(C)[C@H](CC[C@@H]4[C@@]5(C)CC[C@H](OC(C)=O)[C@@](C)(COC(C)=O)[C@@H]5CC[C@]43C)[C@@H]12  4.02
10. C=C(C)[C@@H]1CC[C@]2(C(=O)OCCN(CCCCCCNC(C)=O)C(C)=O)CC[C@]3(C)[C@H](CC[C@@H]4[C@@]5(C)CC[C@H](OC(C)=O)[C@@](C)(COC(C)=O)[C@@H]5CC[C@]43C)[C@@H]12  4.02
11. C=C(C)[C@@H]1CC[C@]2(C(=O)NCCCN(CC)CC)CC[C@]3(C)[C@H](CC[C@@H]4[C@@]5(C)CC[C@H](OC(C)=O)[C@@](C)(COC(C)=O)[C@@H]5CC[C@]43C)[C@@H]12  4.14
12. C=C(C)[C@@H]1CC[C@]2(C(=O)OCCCCCCOC(=O)c3ccccc3C(=O)O)CC[C@]3(C)[C@H](CC[C@@H]4[C@@]5(C)CC[C@H](OC(C)=O)[C@@](C)(COC(C)=O)[C@@H]5CC[C@]43C)[C@@H]12  4.16
13. C=C(C)[C@@H]1CC[C@]2(C(=O)OCCCCCC)CC[C@]3(C)[C@H](CC[C@@H]4[C@@]5(C)CC[C@H](O)[C@@](C)(CO)[C@@H]5CC[C@]43C)[C@@H]12  4.16
14. C=C(C)[C@@H]1CC[C@]2(C(=O)NCC(=O)O)CC[C@]3(C)[C@H](CC[C@@H]4[C@@]5(C)CC[C@H](O)[C@@](C)(CO)[C@@H]5CC[C@]43C)[C@@H]12  4.17
15. C=C(C)[C@@H]1CC[C@]2(C(=O)NCCCCCCN(CC)CC)CC[C@]3(C)[C@H](CC[C@@H]4[C@@]5(C)CC[C@H](OC(C)=O)[C@@](C)(COC(C)=O)[C@@H]5CC[C@]43C)[C@@H]12  4.25
16. C=C(C)[C@@H]1CC[C@]2(C(=O)NCCCCCCNC(=O)/C=C/C(=O)O)CC[C@]3(C)[C@H](CC[C@@H]4[C@@]5(C)CC[C@H](OC(C)=O)[C@@](C)(COC(C)=O)[C@@H]5CC[C@]43C)[C@@H]12  4.26
17. C=C(C)[C@@H]1CC[C@]2(C(=O)OC3CCCCC3)CC[C@]3(C)[C@H](CC[C@@H]4[C@@]5(C)CC[C@H](O)[C@@](C)(CO)[C@@H]5CC[C@]43C)[C@@H]12  4.30
18. C=C(C)[C@@H]1CC[C@]2(C(=O)NCC(=O)N[C@@H](Cc3ccccc3)C(=O)OC)CC[C@]3(C)[C@H](CC[C@@H]4[C@@]5(C)CC[C@H](O)[C@@](C)(CO)[C@@H]5CC[C@]43C)[C@@H]12  4.39
19. C=C(C)[C@@H]1CC[C@]2(COC(=O)C(=O)NC(C)C)CC[C@]3(C)[C@H](CC[C@@H]4[C@@]5(C)CC[C@H](OC(=O)C(=O)NC(C)C)[C@@](C)(COC(=O)C(=O)NC(C)C)[C@@H]5CC[C@]43C)[C@@H]12  4.44
20. C=C(C)[C@@H]1CC[C@]2(COC(=O)C(=O)NCCCC)CC[C@]3(C)[C@H](CC[C@@H]4[C@@]5(C)CC[C@H](OC(=O)C(=O)NCCCC)[C@@](C)(COC(=O)C(=O)NCCCC)[C@@H]5CC[C@]43C)[C@@H]12  4.46
21. C=C(C)[C@@H]1CC[C@]2(C(=O)NCCCCCCNC(C)=O)CC[C@]3(C)[C@H](CC[C@@H]4[C@@]5(C)CC[C@H](OC(C)=O)[C@@](C)(COC(C)=O)[C@@H]5CC[C@]43C)[C@@H]12  4.47
22. C=C(C)[C@@H]1CC[C@]2(COC(=O)C(=O)OC)CC[C@]3(C)[C@H](CC[C@@H]4[C@@]5(C)CC[C@H](OC(=O)C(=O)OC)[C@@](C)(COC(=O)C(=O)OC)[C@@H]5CC[C@]43C)[C@@H]12  4.52
23. C=C(C)[C@@H]1CC[C@]2(C(=O)NCCCCCCNCC)CC[C@]3(C)[C@H](CC[C@@H]4[C@@]5(C)CC[C@H](OC(C)=O)[C@@](C)(COC(C)=O)[C@@H]5CC[C@]43C)[C@@H]12  4.53
24. C=C(C)[C@@H]1CC[C@]2(C(=O)NCCCN)CC[C@]3(C)[C@H](CC[C@@H]4[C@@]5(C)CC[C@H](O)[C@@](C)(CO)[C@@H]5CC[C@]43C)[C@@H]12  4.62
25. C=C(C)[C@@H]1CC[C@]2(COC(=O)C(=O)OCC#CCO)CC[C@]3(C)[C@@H](CC[C@@H]4[C@@]5(C)CC[C@H](OC(=O)C(=O)OCC#CCO)[C@@](C)(COC(=O)C(=O)OCC#CCO)[C@@H]5CC[C@]43C)C12 (some centres undefined)  4.72
26. C=C(C)[C@@H]1CC[C@]2(C(=O)NCCCN)CC[C@]3(C)[C@H](CC[C@@H]4[C@@]5(C)CC[C@H](OC(C)=O)[C@@](C)(COC(C)=O)[C@@H]5CC[C@]43C)[C@@H]12  4.82
27. C=C(C)[C@@H]1CC[C@]2(C(=O)NCCCCCCN)CC[C@]3(C)[C@H](CC[C@@H]4[C@@]5(C)CC[C@H](O)[C@@](C)(CO)[C@@H]5CC[C@]43C)[C@@H]12  4.99
28. C=C(C)[C@@H]1CC[C@]2(C(=O)NCCCCCCN)CC[C@]3(C)[C@H](CC[C@@H]4[C@@]5(C)CC[C@H](OC(C)=O)[C@@](C)(COC(C)=O)[C@@H]5CC[C@]43C)[C@@H]12  5.46
